Measured values: patent US8785452B2, “Anti-infective compounds” (priority 2008, dated 2014)
Like-named read-outs stand apart in the source and are kept apart here.

What was measured:
Raw264.7 cells = experiment: Cell number (CellNb) from image analysis of the phenotypic cell-based assay
[1] = system: M. tuberculosis H37Rv-GFP; experiment: microbe, parasite or virus in culture; type: cell-based; details: Mycobacterium tuberculosis; for inhibition at 0.2 µM: read-out: QUM Confirm % Inhibition 0.2 uM; for inhibition at 2 µM: read-out: QUM Confirm % Inhibition 2 uM; for inhibition at 20 µM: read-out: QUM Confirm % Inhibition 20 uM
[2] = system: M. tuberculosis H37Rv-GFP; experiment: microbe, parasite or virus in culture; type: cell-based, Mycobacterium tuberculosis; details: Mycobacterium tuberculosis, H37RV, Macrophage; for inhibition at 0.2 µM: read-out: QIM Confirm % Inhibition 0.2 uM; for inhibition at 2 µM: read-out: QIM Confirm % Inhibition 2 uM
[3] = confirmation, 0.2 uM, intracellular
[4] = confirmation, 2 uM, intracellular
[5] = confirmation, 20 uM, read-out: QIM Confirm % Inhibition 20 uM
[6] = primary screen, 20 μM, read-out: Primary QIM % Inhibition
[7] = read-out: Primary QIM % Inhibition
[8] = read-out: QIM Confirm % Inhibition 20 uM

Row | SMILES | QIM Confirm CellNb 0.2 uM (Raw264.7 cells; confirmation, 0.2 uM) | QIM Confirm CellNb 2 uM (Raw264.7 cells; confirmation, 2 uM) | QIM Confirm CellNb 20 uM (Raw264.7 cells; confirmation, 20 uM) | Primary QIM CellNb (Raw264.7 cells; primary screen, 20 μM) | inhibition at 0.2 µM [1] | inhibition at 2 µM [1] | inhibition at 20 µM [1] | inhibition at 0.2 µM [2, 3] | inhibition at 2 µM [2, 4] | inhibition at 20 µM [2, 5] | inhibition at 20 µM [2, 6] | Primary QIM CellNb (Raw264.7 cells) | QIM Confirm CellNb 0.2 uM (Raw264.7 cells) | QIM Confirm CellNb 2 uM (Raw264.7 cells) | QIM Confirm CellNb 20 uM (Raw264.7 cells) | inhibition at 20 µM [2, 7] | inhibition at 0.2 µM [2] | inhibition at 2 µM [2] | inhibition at 20 µM [2, 8]
1 | O=C(Oc1cccc2ncccc12)c1ccccc1F [IPK 000 018 65] | 256.6 | 218.3 | 256.4 | 218.0 | 36.4% | 54% | 99% | 28% | 14% | 39.2% | 23.1% | – | – | – | – | – | – | – | –
2 | Fc1ccc(Nc2nc3nonc3nc2Nc2ccc(F)cc2)cc1 [IPK 000 003 91] | 220.9 | 148.9 | 128.8 | 63.0 | 46.6% | 41.4% | 76.7% | 2.9% | 36.8% | 76.4% | 31.6% | – | – | – | – | – | – | – | –
3 | O=C(NN1C(=O)c2ccc(Br)cc2C1=O)c1ccncc1 [IPK 000 008 02] | 306.6 | 218.8 | 484.5 | 305.8 | 36.4% | 31.9% | 98.2% | 0.7% | 9.3% | 98% | 83.2% | – | – | – | – | – | – | – | –
4 | COc1cccc(OCCNC(=O)c2cc([N+](=O)[O-])cc([N+](=O)[O-])c2)c1 [IPK 000 027 77] | – | – | – | – | 40.2% | 96.8% | 100% | – | – | – | – | 378.0 | 218.1 | 315.3 | 322.3 | 89.1% | -12.6% | 47.7% | 86.3%
5 | CCCCS(=O)(=O)/C=C\C=C\S(=O)(=O)CCCC [IPK 000 036 07] | 267.4 | 293.9 | 164.4 | 142.3 | 42.3% | 47.9% | 70.6% | 17.2% | 32% | 59.5% | 27.7% | – | – | – | – | – | – | – | –
6 | O=C1c2ccccc2-c2nc3nonc3nc21 [IPK 000 011 19] | 248.8 | 80.0 | 279.1 | 190.8 | 67.2% | 93.2% | 43.1% | 9.7% | 31.6% | 47.6% | 60% | – | – | – | – | – | – | – | –
7 | O=C(Nc1ccc([N+](=O)[O-])cc1)C12CC3CC(CC(C3)C1)C2 [IPK 000 022 33] | 315.6 | 472.3 | 517.1 | 372.0 | 35.7% | 45.4% | 74.2% | 30.3% | 33.5% | 90% | 66% | – | – | – | – | – | – | – | –
8 | Brc1ccc(/C=N/Nc2nc(N3CCOCC3)nc(N3CCOCC3)n2)o1 [IPK 000 011 65] | 259.6 | 336.5 | 201.1 | 145.5 | 39.8% | 40.6% | 96.3% | 4.7% | 23.4% | 41.9% | 6.5% | – | – | – | – | – | – | – | –
9 | O=C(N/N=C/c1cccc(Br)c1)C1C2CC/C=C\CCC21 (centres unmarked) [IPK 000 010 06] | 412.0 | 344.9 | 380.9 | 322.8 | 39.5% | 43.1% | 39.2% | 17.1% | 18% | 81.8% | 81% | – | – | – | – | – | – | – | –
10 | O=[N+]([O-])c1cc(C(F)(F)F)cc([N+](=O)[O-])c1Sc1nc(-c2ccccc2)c[nH]1 [IPK 000 001 32] | 241.4 | 208.5 | 113.8 | 88.3 | 43.9% | 41.2% | 89.1% | 10.3% | 0.2% | 50.7% | 25.4% | – | – | – | – | – | – | – | –
11 | CCCSc1nnc(-c2ccc(Cl)cc2Cl)o1 [IPK 000 024 43] | 352.1 | 349.0 | 205.0 | 203.8 | 34.7% | 40.1% | 67.7% | 50.4% | 58.3% | 59.1% | 5.8% | – | – | – | – | – | – | – | –
12 | O=C(NN=C1CCCCC1)c1ccncc1 [IPK 000 013 72] | 448.5 | 541.6 | 457.3 | 355.5 | 57.7% | 73.9% | 98% | 63.2% | 104% | 101% | 82.2% | – | – | – | – | – | – | – | –
13 | C/C(=N\NC(N)=S)c1ccc(Cl)cc1 [IPK 000 002 17] | – | – | – | – | 56.9% | 67.4% | 49.7% | – | – | – | – | 235.5 | 472.3 | 541.6 | 249.8 | 26.6% | 54.5% | 70.4% | 24.5%
14 | O=C(NCc1ccc2c(c1)OCO2)c1cc([N+](=O)[O-])cc([N+](=O)[O-])c1 [IPK 000 027 85] | 429.3 | 487.4 | 224.8 | 315.0 | 97.2% | 97.9% | 71.7% | 83% | 99.4% | 40.1% | 100% | – | – | – | – | – | – | – | –
15 | c1ccc(COc2ccc(NCCc3ccncc3)cc2)cc1 [IPK 000 016 00] | 278.8 | 265.4 | 300.3 | 93.0 | 47.1% | 48.6% | 68% | 3.2% | 19.4% | 37.9% | -19% | – | – | – | – | – | – | – | –
16 | O=C(N/N=C/c1cccc2ccccc12)c1ccncc1 [IPK 000 041 46] | 386.9 | 542.6 | 347.1 | 320.0 | 41.1% | 81.4% | 57.9% | 41.8% | 101% | 93.3% | 81.2% | – | – | – | – | – | – | – | –
